Reference: PubChem BioAssay (NCI)
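1) Cells in 96-well plates. 2) Compound, 48 h, 5 concentrations. 3) Linear interpolation between surrounding doses. 4) Unreached endpoint = highest concentration. TGI denotes the concentration required for complete inhibition of growth.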

Tests used:
Experiment in all cases: inhibition of tumour cell growth, NCI panel, 48 h
786-0 renal = test system: 786-0 renal
A498 renal = test system: A498 renal
A549 NSCLC = test system: A549 NSCLC
ACHN renal = test system: ACHN renal
CAKI-1 renal = test system: CAKI-1 renal
CCRF-CEM leukemia = test system: CCRF-CEM leukemia
COLO 205 colon = test system: COLO 205 colon
DLD-1 colon = test system: DLD-1 colon
DMS 114 small cell lung = test system: DMS 114 small cell lung
DMS 273 small cell lung = test system: DMS 273 small cell lung
EKVX NSCLC = test system: EKVX NSCLC
HCC-2998 colon = test system: HCC-2998 colon
HCT-15 colon = test system: HCT-15 colon
HL-60(TB) leukemia = test system: HL-60(TB) leukemia
HOP-18 NSCLC = test system: HOP-18 NSCLC
HOP-62 NSCLC = test system: HOP-62 NSCLC
HOP-92 NSCLC = test system: HOP-92 NSCLC
HT29 colon = test system: HT29 colon
IGROV1 ovarian = test system: IGROV1 ovarian
K-562 leukemia = test system: K-562 leukemia
KM12 colon = test system: KM12 colon
KM20L2 colon = test system: KM20L2 colon
LOX IMVI melanoma = test system: LOX IMVI melanoma
LXFL 529 NSCLC = test system: LXFL 529 NSCLC
M14 melanoma = test system: M14 melanoma
M19-MEL melanoma = test system: M19-MEL melanoma
MALME-3M melanoma = test system: MALME-3M melanoma
MOLT-4 leukemia = test system: MOLT-4 leukemia
NCI-H226 lung = test system: NCI-H226 lung
NCI-H23 lung = test system: NCI-H23 lung
NCI-H460 lung = test system: NCI-H460 lung
NCI-H522 lung = test system: NCI-H522 lung
OVCAR-3 ovarian = test system: OVCAR-3 ovarian
OVCAR-4 ovarian = test system: OVCAR-4 ovarian
OVCAR-5 ovarian = test system: OVCAR-5 ovarian
OVCAR-8 ovarian = test system: OVCAR-8 ovarian
RPMI-8226 leukemia = test system: RPMI-8226 leukemia
RXF 393 renal = test system: RXF 393 renal
RXF-631 renal = test system: RXF-631 renal
SF-268 CNS = test system: SF-268 CNS
SF-295 CNS = test system: SF-295 CNS
SF-539 CNS = test system: SF-539 CNS
SK-MEL-2 melanoma = test system: SK-MEL-2 melanoma
SK-MEL-28 melanoma = test system: SK-MEL-28 melanoma
SK-MEL-5 melanoma = test system: SK-MEL-5 melanoma
SK-OV-3 ovarian = test system: SK-OV-3 ovarian
SN12C renal = test system: SN12C renal
SNB-19 CNS = test system: SNB-19 CNS
SNB-75 CNS = test system: SNB-75 CNS
SNB-78 CNS = test system: SNB-78 CNS
SW-620 colon = test system: SW-620 colon
TK-10 renal = test system: TK-10 renal
U251 CNS = test system: U251 CNS
UACC-257 melanoma = test system: UACC-257 melanoma
UACC-62 melanoma = test system: UACC-62 melanoma
XF 498 CNS = test system: XF 498 CNS

SMILES: C[C@]12CCC3[C@@H](CC[C@@H]4c5nonc5CC[C@]34C)C1CC[C@@H]2O (stereo partly specified)
- TGI (786-0 renal): 75.5 µM
- TGI (A498 renal): 62.7 µM
- TGI (A549 NSCLC): 85.2 µM
- TGI (ACHN renal): 66.3 µM
- TGI (CAKI-1 renal): 52.6 µM
- TGI (CCRF-CEM leukemia): 54.8 µM
- TGI (COLO 205 colon): 71.3 µM
- TGI (DLD-1 colon): 69.4 µM
- TGI (DMS 114 small cell lung): 71.2 µM
- TGI (DMS 273 small cell lung): 60.8 µM
- TGI (EKVX NSCLC): 75.5 µM
- TGI (HCC-2998 colon): > 100 µM
- TGI (HCT-15 colon): 83.5 µM
- TGI (HL-60(TB) leukemia): 43.9 µM
- TGI (HOP-18 NSCLC): > 100 µM
- TGI (HOP-62 NSCLC): > 100 µM
- TGI (HOP-92 NSCLC): 57.7 µM
- TGI (HT29 colon): > 100 µM
- TGI (IGROV1 ovarian): > 100 µM
- TGI (K-562 leukemia): > 100 µM
- TGI (KM12 colon): > 100 µM
- TGI (KM20L2 colon): > 100 µM
- TGI (LOX IMVI melanoma): 41.1 µM
- TGI (LXFL 529 NSCLC): > 100 µM
- TGI (M14 melanoma): 53 µM
- TGI (M19-MEL melanoma): > 100 µM
- TGI (MALME-3M melanoma): 69.3 µM
- TGI (MOLT-4 leukemia): 55.1 µM
- TGI (NCI-H226 lung): > 100 µM
- TGI (NCI-H23 lung): > 100 µM
- TGI (NCI-H460 lung): 71.7 µM
- TGI (NCI-H522 lung): 50.9 µM
- TGI (OVCAR-3 ovarian): 62.1 µM
- TGI (OVCAR-4 ovarian): 82.4 µM
- TGI (OVCAR-5 ovarian): > 100 µM
- TGI (OVCAR-8 ovarian): > 100 µM
- TGI (RPMI-8226 leukemia): 38.9 µM
- TGI (RXF 393 renal): 69.6 µM
- TGI (RXF-631 renal): > 100 µM
- TGI (SF-268 CNS): > 100 µM
- TGI (SF-295 CNS): > 100 µM
- TGI (SF-539 CNS): 32.3 µM
- TGI (SK-MEL-2 melanoma): 48.3 µM
- TGI (SK-MEL-28 melanoma): 70 µM
- TGI (SK-MEL-5 melanoma): 41 µM
- TGI (SK-OV-3 ovarian): 84.9 µM
- TGI (SN12C renal): 53.2 µM
- TGI (SNB-19 CNS): > 100 µM
- TGI (SNB-75 CNS): 77.8 µM
- TGI (SNB-78 CNS): > 100 µM
- TGI (SW-620 colon): > 100 µM
- TGI (TK-10 renal): > 100 µM
- TGI (U251 CNS): 45.7 µM
- TGI (UACC-257 melanoma): 46.9 µM
- TGI (UACC-62 melanoma): > 100 µM
- TGI (XF 498 CNS): 53.7 µM
